Test results: patent publication US20240041042A1, “1-(PYRIDYL)-5-AZINYLPYRAZOLE DERIVATIVES, AND THEIR USE FOR CONTROL OF UNDESIRED PLANT GROWTH” (Bayer Aktiengesellschaft, priority 2020, published 2024)
Like-named read-outs stand apart in the source and are kept apart here.

Tests used:
Assay type in all cases: in vivo
Glycine max (GLXMA) [1] = assay: Post-emergence crop plant compatibility, GLXMA; details: post-emergence, 20 g/ha, effect in comparison to untreated controls
Protocol: Seeds of monocotyledonous and dicotyledonous weeds and crop plants are placed in sandy loam in plastic or organic planting pots, covered with soil and cultivated in a greenhouse under controlled growth conditions. 2 to 3 weeks after sowing, the test plants are treated at the one-leaf stage. The compounds of the invention, formulated in the form of wettable powders (WP) or as emulsion concentrates (EC), are then sprayed onto the green parts of the plants as aqueous suspension or emulsion with addition of 0.5% additive at a water application rate of 600 l/ha (converted). After the test plants have been kept in the greenhouse under optimum growth conditions for about 3 weeks, the activity of the preparations is rated visually in comparison to untreated controls. For example, 100% activity=the plants have died, 0% activity=like control plants.
The observed effects on selected crop plants are reported here in comparison to the untreated controls (values in %). The appendices “a”, “b” and “c” give differentiation by dosage used with otherwise the same crop plants tested.

[2] = system: Triticum aestivum (TRZAS); details: crop plant compatibility, effect vs untreated controls
Method in brief: (§1)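 One-leaf-stage crops (2–3 wk post-sowing, sandy loam, greenhouse) sprayed on green parts; 0.5% additive, 600 l/ha water. Rated by eye ~3 wk later, % vs untreated; suffixes a/b/c mark different dosages.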

Zea mays (ZEAMX) [3] = details: for Post-emergence action against ZEAMX in %: crop plant compatibility, effect vs untreated controls
Method in brief: as §1

Viola tricolor (VIOTR) = assay: Post-emergence herbicidal action against VIOTR; details: 320 g/ha
Method in brief: (§2)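 Values are percent visual activity (0% like control, 100% plants dead) after about 3 weeks in the greenhouse. Treatment: post-emergence spray at one-leaf stage, 600 l/ha spray volume, 0.5% additive, doses 320 g/ha or lower.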

[4] = system: Verconica persica (VERPE); assay: Post-emergence herbicidal action against VERPE; details: 320 g/ha, VERPE
Method in brief: as §2

[5] = system: Abutilon theophrasti (ABUTH); assay: Post-emergence herbicidal action against ABUTH; details: 320 g/ha, visual rating about 3 weeks after treatment vs untreated controls (100% = plants have died, 0% = like control plants)
Method in brief: as §2

[6] = system: Pharbitis purpurea (PHBPU); assay: Post-emergence herbicidal action against PHBPU
Method in brief: as §2

[7] = system: Polygonum convolvulus (POLCO); assay: Post-emergence herbicidal action against POLCO
Method in brief: as §2

[8] = system: Amaranthus retroflexus (AMARE); assay: Pre-emergence herbicidal action against AMARE; details: 320 g/ha, visual scoring after about 3 weeks vs untreated controls
Method in brief: (§3)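 Seeds sown in pots and covered with soil; WP or EC formulations sprayed onto the soil surface at 600 l/ha water with 0.5% additive, at 320 g/ha or lower. Greenhouse growth for about 3 weeks, then visual scoring as % effect against untreated controls (100% = plants dead).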

Oryza sativa (ORYSA) [9] = details: crop plant compatibility, 80 g/ha, effect in comparison to untreated controls
Method in brief: as §1

Setaria viridis (SETVI) [10] = assay: Pre-emergence herbicidal action against SETVI; details: dosage 320 g/ha
Method in brief: as §3

[11] = system: Matricaria inodora (MATIN); assay: Pre-emergence herbicidal action against MATIN; details: dosage 320 g/ha
Method in brief: as §3

[12] = system: Alopecurus myosuroides (ALOMY); assay: Post-emergence herbicidal action against ALOMY; details: 320 g/ha, visual rating about 3 weeks after treatment vs untreated controls (100% = plants have died, 0% = like control plants)
Method in brief: as §2

Lolium rigidum (LOLRI) = assay: Post-emergence herbicidal action against LOLRI; details: dosage 320 g/ha
Method in brief: as §2

[13] = system: Triticum aestivum (TRZAS); details: pre-emergence, crop plant compatibility, in comparison to untreated controls
Method in brief: (§4)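 Crop injury rated visually in percent against untreated plants roughly 3 weeks after treatment (0% no effect, 100% plants dead). Compounds, as WP or EC with 0.5% additive in 600 l/ha water, were applied to the covering soil right after sowing; greenhouse growth. Suffixes a, b, c denote different dosages.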

Zea mays (ZEAMX) [14] = details: pre-emergence, crop plant compatibility, in comparison to untreated controls
Method in brief: as §4

Brassica napus (BRSNW) = details: 80 g/ha, crop plant compatibility, in comparison to untreated controls
Method in brief: as §4

Oryza sativa (ORYSA) [15] = details: pre-emergence, crop plant compatibility, in comparison to untreated controls
Method in brief: as §4

Glycine max (GLXMA) [16] = details: pre-emergence, 80 g/ha, crop plant compatibility, in comparison to untreated controls
Method in brief: as §4

Setaria viridis (SETVI) [17] = assay: Post-emergence herbicidal action against SETVI; details: dosage 320 g/ha
Method in brief: as §2

[18] = system: Echinochloa crus-galli (ECHCG); assay: Post-emergence herbicidal action against ECHCG; details: dosage 320 g/ha
Method in brief: as §2

[19] = system: Amaranthus retroflexus (AMARE); assay: Post-emergence herbicidal action against AMARE; details: 320 g/ha, visual rating about 3 weeks after treatment
Method in brief: as §2

[20] = system: Digitaria sanguinalis (DIGSA); assay: Pre-emergence herbicidal action against DIGSA; details: dosage 320 g/ha
Method in brief: as §3

COC(=O)CCOC(=O)COc1nn(-c2ccccn2)c(-c2ccc(F)nc2)c1C1CC1(F)F (stereo not shown) [Example I-261]
Post-emergence action against GLXMA in % (Glycine max (GLXMA) [1]): 0% | Post-emergence action against TRZAS in % ([2]; 20 g/ha): 0% | Post-emergence action against TRZAS in % ([2]; 80 g/ha): 0% | Post-emergence action against ZEAMX in % (crop plant compatibility) (Zea mays (ZEAMX) [3]; 20 g/ha, ZEAMX, effect in comparison to untreated controls): 0% | Post-emergence action against ZEAMX in % (Zea mays (ZEAMX) [3]; 80 g/ha): 0% | Post-emergence action against VIOTR in % (Viola tricolor (VIOTR)): 80% | Post-emergence action against VERPE in % [4]: 80% | Post-emergence action against ABUTH in % [5]: 80% | Post-emergence action against PHBPU in % ([6]; dosage 320 g/ha): 80% | Post-emergence action against POLCO in % ([7]; dosage 320 g/ha): 80%

CCOC(=O)COc1nn(-c2cccc(C)n2)c(-c2ccc(F)nc2)c1Br [Example I-312]
Pre-emergence action against AMARE in % [8]: 90% | Post-emergence action against TRZAS in % ([2]; 80 g/ha): 20% | Post-emergence action against ZEAMX in % (Zea mays (ZEAMX) [3]; 80 g/ha): 10% | Post-emergence action against ORYSA in % (Oryza sativa (ORYSA) [9]): 10% | Pre-emergence action against SETVI in % (Setaria viridis (SETVI) [10]): 90% | Pre-emergence action against MATIN in % [11]: 90% | Post-emergence action against VERPE in % [4]: 80% | Post-emergence action against ALOMY in % [12]: 90% | Post-emergence action against ABUTH in % [5]: 80% | Post-emergence action against LOLRI in % (Lolium rigidum (LOLRI)): 90% | Post-emergence action against PHBPU in % ([6]; dosage 80 g/ha): 80% | Post-emergence action against PHBPU in % ([6]; dosage 320 g/ha): 90% | Pre-emergence action against TRZAS in % ([13]; 80 g/ha): 10% | Pre-emergence action against TRZAS in % ([13]; 320 g/ha): 20% | Pre-emergence action against ZEAMX in % (Zea mays (ZEAMX) [14]; 80 g/ha): 20% | Pre-emergence action against BRSNW in % (Brassica napus (BRSNW)): 20% | Pre-emergence action against ORYSA in % (Oryza sativa (ORYSA) [15]; 80 g/ha): 20% | Pre-emergence action against GLXMA in % (Glycine max (GLXMA) [16]): 20% | Post-emergence action against SETVI in % (Setaria viridis (SETVI) [17]): 80% | Post-emergence action against ECHCG in % [18]: 90% | Post-emergence action against POLCO in % ([7]; dosage 80 g/ha): 80% | Post-emergence action against POLCO in % ([7]; dosage 320 g/ha): 80%

COC(=O)C=CC(C)NC(=O)COc1nn(-c2ccccn2)c(-c2ccc(F)nc2)c1Br (stereo not shown) [Example I-345]
Post-emergence action against TRZAS in % ([2]; 80 g/ha): 10% | Post-emergence action against ZEAMX in % (Zea mays (ZEAMX) [3]; 80 g/ha): 0% | Post-emergence action against ZEAMX in % (Zea mays (ZEAMX) [3]; 320 g/ha): 10% | Post-emergence action against ORYSA in % (Oryza sativa (ORYSA) [9]): 20% | Post-emergence action against AMARE in % [19]: 80% | Post-emergence action against VERPE in % [4]: 80% | Pre-emergence action against TRZAS in % ([13]; 80 g/ha): 10% | Pre-emergence action against ZEAMX in % (Zea mays (ZEAMX) [14]; 80 g/ha): 0% | Pre-emergence action against ZEAMX in % (Zea mays (ZEAMX) [14]; 320 g/ha): 10% | Pre-emergence action against BRSNW in % (Brassica napus (BRSNW)): 20% | Pre-emergence action against ORYSA in % (Oryza sativa (ORYSA) [15]; 80 g/ha): 10% | Pre-emergence action against ORYSA in % (Oryza sativa (ORYSA) [15]; 320 g/ha): 20% | Pre-emergence action against GLXMA in % (Glycine max (GLXMA) [16]): 0% | Pre-emergence action against DIGSA in % [20]: 90%
